Converted amounts (≈) assume the structure as drawn.
Tests used:
Assay type in all cases: cell-based
[1] = test system: E. coli strain MP-4; test: Broth dilution MIC determination (CLSI) against E. coli strain MP-4; settings: Escherichia coli, MP4
Method in brief: (§1)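 Activity is reported in categories: ≤4 mg/L as "+++", 8 to below 32 mg/L as "++", and 32 mg/L or more as "+". Testing followed CLSI broth dilution procedures.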

[2] = test system: K. pneumoniae strain MP-548; test: Broth dilution MIC determination (CLSI) against K. pneumoniae strain MP-548; settings: Klebsiella pneumoniae, MP548
Method in brief: as §1

[3] = test system: P. aeruginosa strain MP-3; test: Broth dilution MIC determination (CLSI) against P. aeruginosa strain MP-3; settings: Pseudomonas aeruginosa, MP3
Method in brief: as §1

[4] = test system: A. baumannii strain MP-15; test: Broth dilution MIC determination (CLSI) against A. baumannii strain MP-15; settings: Acinetobacter baumannii, MP15
Method in brief: as §1

[5] = test system: S. aureus strain MP-12; test: Broth dilution MIC determination (CLSI) against S. aureus strain MP-12; settings: Staphylococcus aureus, MP12, strain MP-12
Method in brief: as §1

| Compound | MIC [1] [µg/mL] | MIC [2] [µg/mL] | MIC [3] [µg/mL] | MIC [4] [µg/mL] | MIC [5] [µg/mL] |
| --- | --- | --- | --- | --- | --- |
| CC[C@H]1OC(=O)C(C)C(=O)[C@H](C)[C@@H](O[C@@H]2OC(CNCc3cccc(-c4cncnc4)c3)CC(N(C)C)C2O)[C@](C)(OC)C[C@@H](C)CN[C@H](C)[C@H]2NC(=O)O[C@@]21C (stereo partly shown) [Compound 20] | ≤ 4 | ≥ 32 | ≥ 32 | ≥ 32 | ≥ 32 |
| CC[C@H]1OC(=O)[C@@]2(C)CCO[C@](C)(C[C@@H](C)CN[C@H](C)[C@H]3NC(=O)O[C@@]31C)[C@H](O[C@@H]1O[C@H](CNCC3CC3)C[C@H](N(C)C)[C@H]1O)[C@@H](C)C2=O [Compound 197] | ≥ 32 | ≥ 32 | ≥ 32 | ≥ 32 | ≥ 32 |
| CC[C@H]1OC(=O)C(C)C(=O)[C@H](C)[C@@H](OC2OC(CN3CCCCC3)CC(N(C)C)C2O)[C@](C)(OC)C[C@@H](C)CN[C@H](C)[C@H]2NC(=O)O[C@@]21C (stereo partly shown) [Compound 123, 3-Desdadinosyl-3-oxo-6-O-methyl-N9a-desmethyl-11,12-dideoxy-12,11-(oxycarbonylimino)-6′-(1-piperidinyl) Azithromycin] | ≤ 4 | 8 to 32 (≈ 11.5 to 45.9 µM) | ≥ 32 | ≥ 32 | ≥ 32 |
| CC[C@H]1OC(=O)[C@@](C)(F)C(=O)[C@H](C)[C@@H](O[C@@H]2OC(CNc3ccc(-c4cncnc4)cc3)CC(N(C)C)C2O)[C@](C)(OC)C[C@@H](C)C(=O)[C@H](C)[C@H]2NC(=O)O[C@@]21C (stereo partly shown) [Compound 94] | ≥ 32 | ≥ 32 | ≥ 32 | 8 to 32 (≈ 10 to 40 µM) | ≤ 4 |
| CC[C@H]1OC(=O)C(C)C(=O)[C@H](C)[C@@H](O[C@@H]2O[C@H](CN)CC(N(C)C)[C@H]2O)[C@](C)(OC)C[C@@H](C)CN[C@H](C)[C@H]2NC(=O)O[C@@]21C (stereo partly shown) [Compound 174, 3-Descladinosyl-3-oxo-6-O-methyl-N9a-desmethyl-11,12-dideoxy-12,11-(oxycarbonylimino)-11-methyl-6′-amino Azithromycin] | ≥ 32 | ≥ 32 | ≥ 32 | ≥ 32 | ≥ 32 |
| CC[C@H]1OC(=O)C(C)C(=O)[C@H](C)[C@@H](OC2OC(C(O)CNC3CC3)CC(N(C)C)C2O)[C@](C)(OC)C[C@@H](C)CN[C@H](C)[C@H]2NC(=O)O[C@@]21C (stereo partly shown) [Compound 188, 3-Descladinosyl-3-oxo-6-O-methyl-8-oxo-N9a-desmethyl-11,12-dideoxy-12,11-(oxycarbonylimino)-6′-hydroxy-6′-cyclopropylaminomethyl Azithromycin] | ≥ 32 | ≥ 32 | ≥ 32 | ≥ 32 | ≥ 32 |
| CC[C@H]1OC(=O)C(C)C(=O)[C@H](C)[C@@H](OC2OC(CNCC(N)=O)CC(N(C)C)C2O)[C@](C)(OC)C[C@@H](C)CN[C@H](C)[C@H]2NC(=O)O[C@@]21C (stereo partly shown) [Compound 116, 3-Descladinosyl-3-oxo-6-O-methyl-N9a-desmethyl-11,12-dideoxy-12,11-(oxycarbonylimino)-6′-(N-acetamidylamino) Azithromycin] | ≤ 4 | ≥ 32 | ≥ 32 | ≥ 32 | ≥ 32 |
| CC[C@H]1OC(=O)C(C)C(=O)[C@H](C)[C@@H](O[C@@H]2OC(CNCc3ccc(F)cn3)CC(N(C)C)C2O)[C@](C)(OC)C[C@@H](C)CN[C@H](C)[C@H]2NC(=O)O[C@@]21C (stereo partly shown) [Compound 38] | ≤ 4 | ≥ 32 | ≥ 32 | ≥ 32 | ≥ 32 |
| CC[C@H]1OC(=O)[C@@]2(C)CCOC(C)(C[C@@H](C)CN(C(=O)C(F)(F)F)[C@H](C)[C@H]3NC(=O)O[C@@]31C)[C@H](O[C@@H]1OC(C)CC(N(C)C)C1O)[C@@H](C)C2=O (stereo partly shown) [Compound 220] | ≥ 32 | ≥ 32 | ≥ 32 | ≥ 32 | ≥ 32 |
| CC[C@H]1OC(=O)C(C)C(=O)[C@H](C)[C@@H](OC2OC(CN3CCC(C)(C)CC3)CC(N(C)C)C2O)[C@](C)(OC)C[C@@H](C)CN[C@H](C)[C@H]2NC(=O)O[C@@]21C (stereo partly shown) [Compound 138, 3-Desdadinosyl-3-oxo-6-O-methyl-N9a-desmethyl-11,12-dideoxy-12,11-(oxycarbonylimino)-6′-(4″,4″-dimethylpiperidin-1-yl) Azithromycin] | ≤ 4 | ≥ 32 | ≥ 32 | ≥ 32 | ≥ 32 |
| CC[C@H]1OC(=O)C(C)C(=O)[C@H](C)[C@@H](OC2OC(CN(C)C)CC(N(C)C)C2O)[C@](C)(OC)C[C@@H](C)CN(C)[C@H](C)[C@H]2NC(=O)O[C@@]21C (stereo partly shown) [Compound 159, 3-Descladinosyl-3-oxo-6-O-methyl-11,12-dideoxy-12,11-(oxycarbonylimino)-6′-dimethylamino Azithromycin] | ≤ 4 | 8 to 32 (≈ 11.9 to 47.7 µM) | ≥ 32 | ≥ 32 | ≥ 32 |
